Patent US20140242093A1, “METHODS AND COMPOSITIONS FOR MODULATING THE INNATE IMMUNE RESPONSE AND/OR MYOGENESIS IN A MAMMALIAN SUBJECT” (FRED HUTCHINSON CANCER RESEARCH CENTER, priority 2011, published 2014)

Key:
Human myoblasts = test: Expression array of the innate immune response to lentiviral infection versus uninfected cells; assay type: cell-based
Description: RNA was harvested from the lenti-viral infected cells and uninfected control cells at 24 hours after infection.

[1] = system: 31-bp oligonucleotides containing the putative DUX4 binding site; test: Electromobility shift assay (EMSA); set-up: species or system human; conditions: in vitro translated protein; TRIM48, CSF1R, THE1D oligos
Description: EMSA was performed with ^32P-labeled 31-bp oligonucleotides from endogenous genomic sequences containing the putative DUX4 binding site as probes (sequences below; only forward shown). Radiolabeled probes were incubated with in vitro translated protein generated from pCS2-DUX4-fl or pCS2-DUX4-s^2 vectors using the TNT SP6 Coupled Wheat Germ Extract System (Promega) according to manufacturer's instructions. To obtain supershift of protein-DNA complexes, 0.1 μg of E14-3 anti-DUX4 rabbit monoclonal antibody was added to the mixtures. For competition experiments, excess unlabeled probes of either wild-type or mutant sequences were included in the binding reaction. The gels were prepared and run as previously described (Knoepfler et al., 1999).

DUX4-fl: full-length DUX4 protein (SEQ ID NO:110), expressed from lentiviral or pCS2 vectors or in vitro translated
IFITM3 expression ratio vs NoLenti (.fc) (Human myoblasts; gene IFITM3 NM_021034.2, vs uninfected, 24 hours after infection): −0.01 log2 fold change
IL1R1 expression ratio vs GFP (.fc) (Human myoblasts; gene IL1R1 NM_000877.2, vs lenti-GFP, 24 hours after infection): −1.34 log2 fold change
IL1R1 expression ratio vs NoLenti (.fc) (Human myoblasts; gene IL1R1 NM_000877.2, vs uninfected, 24 hours after infection): 0.09 log2 fold change
IL7R expression ratio vs GFP (.fc) (Human myoblasts; gene IL7R NM_002185.2, vs lenti-GFP, 24 hours after infection): −2.26 log2 fold change
IL7R expression ratio vs NoLenti (.fc) (Human myoblasts; gene IL7R NM_002185.2, vs uninfected, 24 hours after infection): −0.49 log2 fold change
IL8 expression ratio vs GFP (.fc) (Human myoblasts; gene IL8 NM_000584.2, vs lenti-GFP, 24 hours after infection): −3.88 log2 fold change
IL8 expression ratio vs NoLenti (.fc) (Human myoblasts; gene IL8 NM_000584.2, vs uninfected, 24 hours after infection): −0.13 log2 fold change
IL18BP expression ratio vs GFP (.fc) (Human myoblasts; gene IL18BP NM_173042.2, vs lenti-GFP, 24 hours after infection): −1.25 log2 fold change
IL18BP expression ratio vs NoLenti (.fc) (Human myoblasts; gene IL18BP NM_173042.2, vs uninfected, 24 hours after infection): 0.85 log2 fold change
IRF7 expression ratio vs GFP (.fc) (Human myoblasts; gene IRF7 NM_004029.2, vs lenti-GFP, 24 hours after infection): −1.96 log2 fold change
IRF7 expression ratio vs NoLenti (.fc) (Human myoblasts; gene IRF7 NM_004029.2, vs uninfected, 24 hours after infection): 1.02 log2 fold change
IRF9 expression ratio vs GFP (.fc) (Human myoblasts; gene IRF9 NM_006084.4, vs lenti-GFP, 24 hours after infection): −2.25 log2 fold change
IRF9 expression ratio vs NoLenti (.fc) (Human myoblasts; gene IRF9 NM_006084.4, vs uninfected, 24 hours after infection): 0.20 log2 fold change
MX1 expression ratio vs GFP (.fc) (Human myoblasts; gene MX1 NM_002462.2, vs lenti-GFP, 24 hours after infection): −5.67 log2 fold change
MX1 expression ratio vs NoLenti (.fc) (Human myoblasts; gene MX1 NM_002462.2, vs uninfected, 24 hours after infection): 1.58 log2 fold change
NFIL3 expression ratio vs GFP (.fc) (Human myoblasts; gene NFIL3 NM_005384.2, vs lenti-GFP, 24 hours after infection): −1.82 log2 fold change
NFIL3 expression ratio vs NoLenti (.fc) (Human myoblasts; gene NFIL3 NM_005384.2, vs uninfected, 24 hours after infection): 0.07 log2 fold change
NFKBIA expression ratio vs GFP (.fc) (Human myoblasts; gene NFKBIA NM_020529.1, vs lenti-GFP, 24 hours after infection): −3.00 log2 fold change
NFKBIA expression ratio vs NoLenti (.fc) (Human myoblasts; gene NFKBIA NM_020529.1, vs uninfected, 24 hours after infection): −0.83 log2 fold change
NFKBIZ expression ratio vs GFP (.fc) (Human myoblasts; gene NFKBIZ NM_001005474.1, vs lenti-GFP, 24 hours after infection): −1.57 log2 fold change
NFKBIZ expression ratio vs NoLenti (.fc) (Human myoblasts; gene NFKBIZ NM_001005474.1, vs uninfected, 24 hours after infection): 0.30 log2 fold change
STAT1 expression ratio vs GFP (.fc) (Human myoblasts; gene STAT1 NM_007315.2, vs lenti-GFP, 24 hours after infection): −2.92 log2 fold change
STAT1 expression ratio vs NoLenti (.fc) (Human myoblasts; gene STAT1 NM_007315.2, vs uninfected, 24 hours after infection): 1.08 log2 fold change
STAT2 expression ratio vs GFP (.fc) (Human myoblasts; gene STAT2 NM_005419.2, vs lenti-GFP, 24 hours after infection): −2.69 log2 fold change
STAT2 expression ratio vs NoLenti (.fc) (Human myoblasts; gene STAT2 NM_005419.2, vs uninfected, 24 hours after infection): −0.77 log2 fold change
TLR3 expression ratio vs GFP (.fc) (Human myoblasts; gene TLR3 NM_003265.2, vs lenti-GFP, 24 hours after infection): −1.27 log2 fold change
TLR3 expression ratio vs NoLenti (.fc) (Human myoblasts; gene TLR3 NM_003265.2, vs uninfected, 24 hours after infection): −0.06 log2 fold change
TNFAIP2 expression ratio vs GFP (.fc) (Human myoblasts; gene TNFAIP2 NM_006291.2, vs lenti-GFP, 24 hours after infection): −1.59 log2 fold change
TNFAIP2 expression ratio vs NoLenti (.fc) (Human myoblasts; gene TNFAIP2 NM_006291.2, vs uninfected, 24 hours after infection): −0.42 log2 fold change
TNFAIP3 expression ratio vs GFP (.fc) (Human myoblasts; gene TNFAIP3 NM_006290.2, vs lenti-GFP, 24 hours after infection): −2.90 log2 fold change
TNFAIP3 expression ratio vs NoLenti (.fc) (Human myoblasts; gene TNFAIP3 NM_006290.2, vs uninfected, 24 hours after infection): −0.38 log2 fold change
TNFAIP6 expression ratio vs GFP (.fc) (Human myoblasts; gene TNFAIP6 NM_007115.2, vs lenti-GFP, 24 hours after infection): −2.21 log2 fold change
TNFAIP6 expression ratio vs NoLenti (.fc) (Human myoblasts; gene TNFAIP6 NM_007115.2, vs uninfected, 24 hours after infection): 1.63 log2 fold change
TNFRSF6B expression ratio vs GFP (.fc) (Human myoblasts; gene TNFRSF6B NM_032945.2, vs lenti-GFP, 24 hours after infection): −1.68 log2 fold change
TNFRSF6B expression ratio vs NoLenti (.fc) (Human myoblasts; gene TNFRSF6B NM_032945.2, vs uninfected, 24 hours after infection): −0.29 log2 fold change
TNFRSF10A expression ratio vs GFP (.fc) (Human myoblasts; gene TNFRSF10A NM_003844.2, vs lenti-GFP, 24 hours after infection): −1.13 log2 fold change
TNFRSF10A expression ratio vs NoLenti (.fc) (Human myoblasts; gene TNFRSF10A NM_003844.2, vs uninfected, 24 hours after infection): 0.07 log2 fold change
TNFRSF14 expression ratio vs GFP (.fc) (Human myoblasts; gene TNFRSF14 NM_003820.2, vs lenti-GFP, 24 hours after infection): −2.72 log2 fold change
TNFRSF14 expression ratio vs NoLenti (.fc) (Human myoblasts; gene TNFRSF14 NM_003820.2, vs uninfected, 24 hours after infection): −1.36 log2 fold change
TNFSF10 expression ratio vs GFP (.fc) (Human myoblasts; gene TNFSF10 NM_003810.2, vs lenti-GFP, 24 hours after infection): −1.13 log2 fold change
TNFSF10 expression ratio vs NoLenti (.fc) (Human myoblasts; gene TNFSF10 NM_003810.2, vs uninfected, 24 hours after infection): 0.14 log2 fold change
TNFSF13B expression ratio vs GFP (.fc) (Human myoblasts; gene TNFSF13B NM_006573.3, vs lenti-GFP, 24 hours after infection): −1.76 log2 fold change
TNFSF13B expression ratio vs NoLenti (.fc) (Human myoblasts; gene TNFSF13B NM_006573.3, vs uninfected, 24 hours after infection): 0.12 log2 fold change
number of lentivirus-induced genes whose induction is suppressed (Human myoblasts; out of 341): 317 genes
number of the 341 lenti-GFP induced genes induced 2-fold or more (Human myoblasts; vs uninfected cells, 24 hours): 34 genes
binding to DUX4 core motifs [1]: binds the core motifs present in both MaLR-associated and non-repeat associated sites
